Columns and labels:
Test in all cases: Test B pre-/postemergence plant response
Format in all cases: in vivo
[1] = system: Surinam grass (Brachiaria decumbens)
Procedure, shortened: (§1)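 Visual injury, 0–100 scale (100 = complete control), rated against controls after 13 to 15 days in greenhouse. Pre-emergence: seeds in loam/sand soil, treated at planting. Post-emergence: 1- to 4-leaf plants (2 to 18 cm) in peat/vermiculite medium. Compounds formulated in non-phytotoxic solvent with surfactant.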

[2] = system: cocklebur (Xanthium strumarium)
Procedure, shortened: as §1

[3] = system: galium (catchweed bedstraw, Galium aparine); conditions: Preemergence; for Galium plant response rating: 125 g ai/ha
Procedure, shortened: as §1

kochia (Kochia scoparia) = system: kochia (Kochia scoparia)
Procedure, shortened: as §1

[4] = system: lambsquarters (Chenopodium album)
Procedure, shortened: as §1

[5] = system: large crabgrass (Digitaria sanguinalis)
Procedure, shortened: as §1

[6] = system: nightshade (eastern black nightshade, Solanum ptycanthum); conditions: Preemergence; for Nightshade plant response rating: 125 g ai/ha
Procedure, shortened: as §1

[7] = system: sunflower (common oilseed sunflower, Helianthus annuus); conditions: Preemergence; for Sunflower plant response rating: 125 g ai/ha
Procedure, shortened: as §1

wild oat (Avena fatua) = system: wild oat (Avena fatua)
Procedure, shortened: as §1

[8] = system: woolly cupgrass (Eriochloa villosa)
Procedure, shortened: as §1

[9] = system: yellow nutsedge (Cyperus esculentus)
Procedure, shortened: as §1

[10] = system: goosegrass (Eleusine indica); conditions: Preemergence, 62 g ai/ha; scale 0 to 100, 0 no effect, 100 complete control
[11] = 250 g ai/ha, Preemergence, 0 to 100 scale
[12] = Postemergence, 31 g ai/ha, scale 0 to 100 (0 no effect, 100 complete control)
[13] = Postemergence, 62 g ai/ha, scale 0 (no effect) to 100 (complete control), 13 to 15 days
[14] = Postemergence, 125 g ai/ha, visual rating after 13 to 15 days, scale 0 (no effect) to 100 (complete control)
[15] = Postemergence, 250 g ai/ha, scale 0 to 100
[16] = Preemergence, 31 g ai/ha, scale 0 to 100 (0 no effect, 100 complete control)
[17] = Preemergence, 62 g ai/ha, scale 0 to 100, 0 no effect, 100 complete control
[18] = Preemergence, 125 g ai/ha, 0 to 100 scale
[19] = 31 g ai/ha, scale 0 to 100 (0 no effect, 100 complete control)
[20] = 62 g ai/ha, scale 0 to 100, 0 no effect, 100 complete control

**Q.** What does the source list for Cc1cccc(-n2c(-c3ccccc3)ncc(C(=O)C3=C(O)CCCC3=O)c2=O)c1C [Compound 27]?
**A.** Plant response rating, Surinam Grass [1, 11]: 95; Plant response rating, Surinam Grass [1, 12]: 50; Plant response rating, Surinam Grass [1, 13]: 70; Plant response rating, Surinam Grass [1, 14]: 80; Surinam Grass plant response rating [1, 15]: 80; Plant response rating, Surinam Grass [1, 16]: 0; Plant response rating, Surinam Grass [1, 17]: 20; Surinam Grass plant response rating [1, 18]: 60; Plant response rating, Cocklebur [2, 11]: 90; Plant response rating, Cocklebur [2, 12]: 90; Plant response rating, Cocklebur [2, 13]: 95; Plant response rating, Cocklebur [2, 14]: 95; Cocklebur plant response rating [2, 15]: 98; Plant response rating, Cocklebur [2, 16]: 0; Plant response rating, Cocklebur [2, 17]: 85; Cocklebur plant response rating [2, 18]: 85; Plant response rating, Galium ([3]; 250 g ai/ha, 0 to 100 scale): 95; Plant response rating, Galium [3, 19]: 0; Plant response rating, Galium [3, 20]: 50; Galium plant response rating ([3]; 0 to 100 scale): 85; Plant response rating, Kochia (kochia (Kochia scoparia); [11]): 100; Plant response rating, Kochia (kochia (Kochia scoparia); [14]): 100; Kochia plant response rating (kochia (Kochia scoparia); [15]): 100; Plant response rating, Kochia (kochia (Kochia scoparia); [16]): 100; Plant response rating, Kochia (kochia (Kochia scoparia); [17]): 100; Kochia plant response rating (kochia (Kochia scoparia); [18]): 100; Plant response rating, Lambsquarters [4, 11]: 100; Plant response rating, Lambsquarters [4, 12]: 90; Plant response rating, Lambsquarters [4, 13]: 95; Plant response rating, Lambsquarters [4, 14]: 95; Lambsquarters plant response rating [4, 15]: 98; Plant response rating, Lambsquarters [4, 16]: 100; Plant response rating, Lambsquarters [4, 17]: 100; Lambsquarters plant response rating [4, 18]: 100; Plant response rating, Crabgrass, Large [5, 11]: 100; Plant response rating, Crabgrass, Large [5, 12]: 50; Plant response rating, Crabgrass, Large [5, 13]: 50; Plant response rating, Crabgrass, Large [5, 14]: 60; Crabgrass, Large plant response rating [5, 15]: 60; Plant response rating, Crabgrass, Large [5, 16]: 5; Plant response rating, Crabgrass, Large [5, 17]: 80; Crabgrass, Large plant response rating [5, 18]: 100; Plant response rating, Nightshade ([6]; 250 g ai/ha, 0 to 100 scale): 100; Plant response rating, Nightshade [6, 19]: 80; Plant response rating, Nightshade [6, 20]: 98; Nightshade plant response rating ([6]; 0 to 100 scale): 100; Plant response rating, Sunflower ([7]; 250 g ai/ha, 0 to 100 scale): 100; Plant response rating, Sunflower [7, 19]: 75; Plant response rating, Sunflower [7, 20]: 75; Sunflower plant response rating ([7]; 0 to 100 scale): 90; Plant response rating, Oat, Wild (wild oat (Avena fatua); [11]): 50; Plant response rating, Oat, Wild (wild oat (Avena fatua); [12]): 45; Plant response rating, Oat, Wild (wild oat (Avena fatua); [13]): 50; Plant response rating, Oat, Wild (wild oat (Avena fatua); [14]): 50; Oat, Wild plant response rating (wild oat (Avena fatua); [15]): 65; Plant response rating, Oat, Wild (wild oat (Avena fatua); [16]): 0; Plant response rating, Oat, Wild (wild oat (Avena fatua); [17]): 0; Oat, Wild plant response rating (wild oat (Avena fatua); [18]): 30; Plant response rating, Cupgrass, Woolly [8, 11]: 80; Plant response rating, Cupgrass, Woolly [8, 12]: 60; Plant response rating, Cupgrass, Woolly [8, 13]: 60; Plant response rating, Cupgrass, Woolly [8, 14]: 70; Cupgrass, Woolly plant response rating [8, 15]: 80; Plant response rating, Cupgrass, Woolly [8, 16]: 0; Plant response rating, Cupgrass, Woolly [8, 17]: 0; Cupgrass, Woolly plant response rating [8, 18]: 60; Plant response rating, Nutsedge, Yellow [9, 11]: 90; Plant response rating, Nutsedge, Yellow [9, 12]: 30; Plant response rating, Nutsedge, Yellow [9, 13]: 40; Plant response rating, Nutsedge, Yellow [9, 14]: 50; Nutsedge, Yellow plant response rating [9, 15]: 55; Plant response rating, Nutsedge, Yellow [9, 16]: 0; Plant response rating, Nutsedge, Yellow [9, 17]: 20; Nutsedge, Yellow plant response rating [9, 18]: 30; Plant response rating, Goosegrass [10]: 98

**Q.** Which results are given for Cc1ccc(C)c(-n2c(-c3ccccc3)ncc(C(=O)C3=C(O)CCCC3=O)c2=O)c1 [Compound 29]?
**A.** Plant response rating, Surinam Grass [1, 11]: 95; Plant response rating, Surinam Grass [1, 13]: 50; Plant response rating, Surinam Grass [1, 14]: 70; Surinam Grass plant response rating [1, 15]: 85; Plant response rating, Surinam Grass [1, 16]: 0; Plant response rating, Surinam Grass [1, 17]: 20; Surinam Grass plant response rating [1, 18]: 90; Plant response rating, Cocklebur [2, 11]: 90; Plant response rating, Cocklebur [2, 12]: 85; Plant response rating, Cocklebur [2, 13]: 95; Plant response rating, Cocklebur [2, 14]: 95; Cocklebur plant response rating [2, 15]: 98; Plant response rating, Cocklebur [2, 16]: 5; Plant response rating, Cocklebur [2, 17]: 80; Cocklebur plant response rating [2, 18]: 90; Plant response rating, Galium ([3]; 250 g ai/ha, 0 to 100 scale): 100; Plant response rating, Galium [3, 19]: 50; Plant response rating, Galium [3, 20]: 80; Galium plant response rating ([3]; 0 to 100 scale): 98; Plant response rating, Kochia (kochia (Kochia scoparia); [11]): 100; Plant response rating, Kochia (kochia (Kochia scoparia); [16]): 98; Plant response rating, Kochia (kochia (Kochia scoparia); [17]): 100; Kochia plant response rating (kochia (Kochia scoparia); [18]): 100; Plant response rating, Lambsquarters [4, 11]: 100; Plant response rating, Lambsquarters [4, 13]: 85; Plant response rating, Lambsquarters [4, 14]: 90; Lambsquarters plant response rating [4, 15]: 98; Plant response rating, Lambsquarters [4, 16]: 100; Plant response rating, Lambsquarters [4, 17]: 100; Lambsquarters plant response rating [4, 18]: 100; Plant response rating, Crabgrass, Large [5, 11]: 100; Plant response rating, Crabgrass, Large [5, 12]: 45; Plant response rating, Crabgrass, Large [5, 13]: 50; Plant response rating, Crabgrass, Large [5, 14]: 55; Crabgrass, Large plant response rating [5, 15]: 80; Plant response rating, Crabgrass, Large [5, 16]: 98; Plant response rating, Crabgrass, Large [5, 17]: 100; Crabgrass, Large plant response rating [5, 18]: 100; Plant response rating, Nightshade ([6]; 250 g ai/ha, 0 to 100 scale): 100; Plant response rating, Nightshade [6, 19]: 90; Plant response rating, Nightshade [6, 20]: 90; Nightshade plant response rating ([6]; 0 to 100 scale): 100; Plant response rating, Sunflower ([7]; 250 g ai/ha, 0 to 100 scale): 100; Plant response rating, Sunflower [7, 19]: 75; Plant response rating, Sunflower [7, 20]: 85; Sunflower plant response rating ([7]; 0 to 100 scale): 90; Plant response rating, Oat, Wild (wild oat (Avena fatua); [11]): 50; Plant response rating, Oat, Wild (wild oat (Avena fatua); [13]): 50; Plant response rating, Oat, Wild (wild oat (Avena fatua); [14]): 60; Oat, Wild plant response rating (wild oat (Avena fatua); [15]): 80; Plant response rating, Oat, Wild (wild oat (Avena fatua); [16]): 0; Plant response rating, Oat, Wild (wild oat (Avena fatua); [17]): 0; Oat, Wild plant response rating (wild oat (Avena fatua); [18]): 45; Plant response rating, Cupgrass, Woolly [8, 11]: 90; Plant response rating, Cupgrass, Woolly [8, 12]: 80; Plant response rating, Cupgrass, Woolly [8, 13]: 85; Plant response rating, Cupgrass, Woolly [8, 14]: 85; Cupgrass, Woolly plant response rating [8, 15]: 85; Plant response rating, Cupgrass, Woolly [8, 16]: 5; Plant response rating, Cupgrass, Woolly [8, 17]: 10; Cupgrass, Woolly plant response rating [8, 18]: 55; Plant response rating, Nutsedge, Yellow [9, 11]: 85; Plant response rating, Nutsedge, Yellow [9, 13]: 50; Plant response rating, Nutsedge, Yellow [9, 14]: 70; Nutsedge, Yellow plant response rating [9, 15]: 70; Plant response rating, Nutsedge, Yellow [9, 16]: 0; Plant response rating, Nutsedge, Yellow [9, 17]: 30; Nutsedge, Yellow plant response rating [9, 18]: 60; Plant response rating, Goosegrass [10]: 100

Source: patent publication US8952024B2, “Herbicidal pyrimidone derivatives” (E I du Pont de Nemours and Company, priority 2009, dated 2015)
